The source of these data is patent US20190174748A1, “COMPOSITION FOR DELIVERY OF ACTIVE AGENTS TO AN ANIMAL” (priority 2015, published 2019).

The subject of series [1] is BALB/C mice. The following applies: baits at 4% Warfarin activity.
Text: Experimental Methods: Ten-twelve week old female BALB/C mice are used. Mice are fed ad libitum. Each experimental group is housed in a separate cage.
The feed intake and kill effect on the mice are monitored.
In the next series the test system is rats. The conditions noted are these: 250-500 g rats, baits at 4% Warfarin activity.
A further series concerns Rodents. The conditions noted are these: rodents ingesting baits; cited from earlier work.
In series [2] the test system is BALB/C mice. Kind of series: Oral administration of OVA composition to mice: OVA specific IgG, IgA (ELISA) and ASC. The following applies: mice inoculated at 0 and 3 weeks, sampled at week 4. In kind it is in vivo. Here is the method:
Ovalbumin is orally administered to mice to test the efficacy of the inventive compositions in inducing an immune response.
Ovalbumin composition: Ovalbumin (1 mg/g of ovalbumin, Sigma, St. Louis, Mo.,) is incorporated into the inventive composition as described in Example 5. Three groups of 4 mice each are inoculated as follows: 1) ovalbumin (OVA) in the composition, administered orally, 2) OVA solution, administered subcutaneously (SC), 3) antigen free composition administered orally. Mice are inoculated at 0 and 3 weeks. Each dose administers a total 100 mg of dry composition mixed with corn oil at a ratio of 1:2 w/w of dry composition/oil, coated onto feed pellets. At week 4 each mouse is euthanized and serum and spleen cells are harvested.
Immunological assays: Serum is assayed for IgG and IgA by ELISA. ELISA is performed using OVA absorbed to polystyrene plates. Samples are placed in wells in triplicate at a 1:25 dilution for serum. Goat anti-mouse antibody conjugated with horse radish peroxidase is used, followed by an orthophenylenediamine substrate (Sigma, St. Louis, Mo., U.S.A.). Optical density of each well is determined by placing the plate in a microtiter plate spectrophotometer and reading the plate at 490 nm. Spleen cells are tested for antibody secreting cells (ASC) specific for OVA, using techniques described previously.
On the technique in general: An ELISA detects its analyte on a solid surface through an enzyme-linked reagent.

Series [3] in a line: Degradation of unprotected OVA in simulated gastric fluid with 0.08% pepsin, pH 2. The format is in vitro ADME. The conditions noted are these: pH 2, 37° C. Here is the method: Western Blot: the compositions were lysed with RIPA buffer as described above, and a calculated amount equivalent to 12 μg of protein per sample was loaded on a 10% SDS-polyacrylamide gradient gel (SDS-PAGE, Bio-Rad, Hercules, Calif.). Proteins were transferred onto a PVDF membrane (Bio-Rad) and blocked for 1 h with 5% non-fat milk in PBS containing 0.5% Tween-20 (PBS-T). Blots were incubated with an appropriate primary antibody at 1:5000 dilutions for 1 h at room temperature. After washing with PBS-T (3×10 mL, 5 min. each), the membranes were incubated with an appropriate HRP-conjugated secondary antibody (EMD Millipore Corporation, Billerica, Mass., USA) at 1:5000 dilution for 1 h. After washing with PBS-T (3×10 mL, 5 min. each), chemiluminescent films were developed with an ECL substrate (Amsheram Biosciences).
To evaluate the loss of activity of a protein antigen following a typical gastric exposure, non-encapsulated OVA (10 mg) was incubated in 10 ml simulated gastric fluid containing 0.08% pepsin at pH-2 for 2 h at 37° C. on a shaker. Medium was withdrawn at 15 min, 30 min, 60 min and 120 min incubation times, and the amount of residual OVA was analyzed using Western Blot analysis as described above.

Text for rats: Experimental Methods: 250-500 g rats are used. Rats are fed ad libitum. Each experimental group is housed in a separate cage.
The feed intake and kill effect on the rats are monitored.

As for `CC(=O)CC(c1ccccc1)c1c(O)c2ccccc2oc1=O` (stereo not shown) [Warfarin], the “kill effect after 8 h from feeding” value with BALB/C mice [1] is reported as “all group 2 mice remain alive”. In addition, the “kill effect after 8 h from feeding” value with rats is “all group 2 rats remain alive”. Moreover, in the series on Rodents, the “time to become unconscious” value was 1 to 2 h, the “time to obvious symptoms of poisoning” value is 15 to 30 min and the “time to recovery after sub lethal amount” value is at most 8 h.

In the case of “ovalbumin [non-encapsulated OVA, ovalbumin, model vaccine / protein antigen, unprotected]”, in the series with BALB/C mice [2], the “OVA specific serum IgA, IgG and ASC secreting cells” value is listed as “equally increased”.

B1: ovalbumin (protein, UniProt P01012 2-386, looked up)
Ovalbumin: GSIGAASMEFCFDVFKELKVHHANENIFYCPIAIMSALAMVYLGAKDSTRTQINKVVRFDKLPGFGDSIEAQCGTSVNVHSSLRDILNQITKPNDVYSFSLASRLYAEERYPILPEYLQCVKELYRGGLEPINFQTAADQARELINSWVESQTNGIIRNVLQPSSVDSQTAMVLVNAIVFKGLWEKAFKDEDTQAMPFRVTEQESKPVQMMYQIGLFRVASMASEKMKILELPFASGTMSMLVLLPDEVSGLEQLESIINFEKLTEWTSSNVMEERKIKVYLPRMKMEEKYNLTSVLMAMGITDVFSSSANLSGISSAESLKISQAVHAAHAEINEAGREVVGSAEAGVDAASVSEEFRADHPFLFCIKHIATNAVLFFGRCVSP
notes: ovalbumin, model vaccine / protein antigen, unprotected
As for B1, the “Remaining activity (%)” value in series [3] (15 min in simulated gastric fluid, relative to pre-exposure activity) is reported as 61%; in series [3] (30 min in simulated gastric fluid), 55%; in series [3] (60 min in simulated gastric fluid), 38%; in series [3] (120 min in simulated gastric fluid), 2%.
